Experimental data as given in ChEMBL document CHEMBL1201862, “PubChem BioAssay data set” (2004).
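Values below derive from 48-hour exposures of cells grown in 96-well plates, with endpoints linearly interpolated between the two concentrations bracketing the appropriate inhibition level. At the GI50, growth is halved.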 The source made the active and inactive calls. Cut-off read from the data, not from the text of the source: active = GI50 up to about 1.1 µM and inactive = higher.

What was measured:
Assay in all cases: NCI-60 cell line screen, 48 h
SK-MEL-5 = tested on: SK-MEL-5
786-0 = tested on: 786-0
HCT-15 = tested on: HCT-15
SW-620 = tested on: SW-620
DLD-1 = tested on: DLD-1
COLO 205 = tested on: COLO 205
HOP-62 = tested on: HOP-62
OVCAR-8 = tested on: OVCAR-8
KM12 = tested on: KM12
OVCAR-3 = tested on: OVCAR-3
CAKI-1 = tested on: CAKI-1
HOP-92 = tested on: HOP-92
IGROV-1 = tested on: IGROV-1
LXFL 529 = tested on: LXFL 529
NCI-H226 = tested on: NCI-H226
SN12C = tested on: SN12C
HL-60 = tested on: HL-60
HOP-18 = tested on: HOP-18
NCI/ADR-RES = tested on: NCI/ADR-RES
PC-3 = tested on: PC-3

Compound	GI50 (SK-MEL-5)	GI50 (786-0)	GI50 (HCT-15) [µM]	GI50 (SW-620)	GI50 (DLD-1)	GI50 (COLO 205)	GI50 (HOP-62)	GI50 (OVCAR-8)	GI50 (KM12)	GI50 (OVCAR-3)	GI50 (CAKI-1)	GI50 (HOP-92)	GI50 (IGROV-1)	GI50 (LXFL 529)	GI50 (NCI-H226)	GI50 (SN12C)	GI50 (HL-60)	GI50 (HOP-18)	GI50 (NCI/ADR-RES)	GI50 (PC-3)
CC1=C(O)C(=O)C2C(=O)C1C(C)C2c1ccc(C)cc1 (configuration not stated)	> 100 µM (inactive)	> 100 µM (inactive)	> 100	> 100 µM (inactive)	> 100 µM (inactive)	> 100 µM (inactive)	> 100 µM (inactive)	> 100 µM (inactive)	> 100 µM (inactive)	> 100 µM (inactive)	> 100 µM (inactive)	> 100 µM (inactive)	> 100 µM (inactive)	> 100 µM (inactive)						
CC(=O)NC(CCCCN(Cc1ccccc1)C(=O)N(C)N=O)C(=O)NCc1ccccc1 (configuration not stated)	47.1 µM (inactive)	> 100 µM (inactive)	> 100	> 100 µM (inactive)	> 100 µM (inactive)	88.3 µM (inactive)	> 100 µM (inactive)	> 100 µM (inactive)	> 100 µM (inactive)	> 100 µM (inactive)	> 100 µM (inactive)	61.8 µM (inactive)	> 100 µM (inactive)	51.5 µM (inactive)	36.5 µM (inactive)	> 100 µM (inactive)				
Nc1nc(SCc2ccc([N+](=O)[O-])cc2)nc2c1ncn2C1OC(COP(=O)(O)O)C(O)C1O (configuration not stated)	> 100 µM (inactive)		> 100	> 100 µM (inactive)	> 100 µM (inactive)	> 100 µM (inactive)	> 100 µM (inactive)	> 100 µM (inactive)	> 100 µM (inactive)	> 100 µM (inactive)		> 100 µM (inactive)	> 100 µM (inactive)	> 100 µM (inactive)	> 100 µM (inactive)	> 100 µM (inactive)	> 100 µM (inactive)			
C=C=C(C(=O)OC)[S+]([O-])c1ccccc1[N+](=O)[O-] (configuration not stated)	> 100 µM (inactive)	> 100 µM (inactive)	59	99.5 µM (inactive)		> 100 µM (inactive)	> 100 µM (inactive)	> 100 µM (inactive)	> 100 µM (inactive)	> 100 µM (inactive)	> 100 µM (inactive)		> 100 µM (inactive)	> 100 µM (inactive)	> 100 µM (inactive)	> 100 µM (inactive)	75.2 µM (inactive)	> 100 µM (inactive)		
COc1ccc(OC(C)=O)c2c1CCC=CC2=O	15.6 µM (inactive)	17.9 µM (inactive)	14.5	13.2 µM (inactive)	> 10 µM (inactive)	9.2 µM (inactive)	14.7 µM (inactive)	16.8 µM (inactive)	3.4 µM (inactive)	15.8 µM (inactive)		2.83 µM (inactive)	17.7 µM (inactive)	9.57 µM (inactive)	18.8 µM (inactive)	17.1 µM (inactive)	2.47 µM (inactive)			
CCOC(=O)/C(O)=C1\C(=O)N(C)C(=O)C1c1cccc(OC)c1 (configuration not stated)	> 100 µM (inactive)		> 100	> 100 µM (inactive)	> 100 µM (inactive)	> 100 µM (inactive)	> 100 µM (inactive)	> 100 µM (inactive)	> 100 µM (inactive)	> 53.3 µM (inactive)	> 100 µM (inactive)	> 100 µM (inactive)	> 100 µM (inactive)		> 100 µM (inactive)	> 100 µM (inactive)	> 100 µM (inactive)	> 100 µM (inactive)	> 100 µM (inactive)	
NC(=O)N/C=C1\C(=O)Oc2ccccc2C1=O	> 100 µM (inactive)		48.5	> 100 µM (inactive)	> 100 µM (inactive)	> 100 µM (inactive)	> 100 µM (inactive)	> 100 µM (inactive)	> 100 µM (inactive)	84.7 µM (inactive)		56.9 µM (inactive)	> 100 µM (inactive)	> 100 µM (inactive)	> 100 µM (inactive)	64.4 µM (inactive)	53.8 µM (inactive)			
CCN(CC)CCNC(=O)C1COc2ccc(-c3cc(=O)c4ccccc4o3)cc2O1 (configuration not stated)	20.9 µM (inactive)		15.5	18.5 µM (inactive)	22.9 µM (inactive)	17.9 µM (inactive)	21.4 µM (inactive)	16.7 µM (inactive)	18.2 µM (inactive)	21.2 µM (inactive)	20.5 µM (inactive)	19.1 µM (inactive)	28.9 µM (inactive)		16.6 µM (inactive)	19.1 µM (inactive)	13.2 µM (inactive)	21 µM (inactive)	19.2 µM (inactive)	
C[C@]12CC[C@H](OC(=O)Nc3ccccc3)CC1=CC[C@@H]1C2CC[C@]2(C)/C(=N/OC(=O)Nc3ccccc3)CCC12 (some centres not stated)	5.35 µM (inactive)	> 100 µM (inactive)	1.77	> 100 µM (inactive)		4.49 µM (inactive)		22.3 µM (inactive)	8.15 µM (inactive)	> 100 µM (inactive)	1.81 µM (inactive)	20.1 µM (inactive)	4.19 µM (inactive)	1.12 µM (inactive)		1.79 µM (inactive)	5.82 µM (inactive)	2.4 µM (inactive)		
C=CCNC(=O)N(CCCC(NC(C)=O)C(=O)NCc1ccccc1)Cc1ccccc1 (configuration not stated)	> 100 µM (inactive)	> 100 µM (inactive)	> 100	> 100 µM (inactive)		> 100 µM (inactive)	> 100 µM (inactive)	> 100 µM (inactive)	> 100 µM (inactive)	> 100 µM (inactive)	> 100 µM (inactive)	83 µM (inactive)	> 100 µM (inactive)	> 100 µM (inactive)	> 100 µM (inactive)	> 100 µM (inactive)	> 100 µM (inactive)	> 100 µM (inactive)		
CCc1cccc(C(C)C)c1NC(=O)C(=O)C(CC(=O)Nc1ccc(Cl)c(Cl)c1)C(=O)OC (configuration not stated)	55.8 µM (inactive)	> 100 µM (inactive)	14.8	10 µM (inactive)	31 µM (inactive)	77.3 µM (inactive)	35.2 µM (inactive)	> 100 µM (inactive)	43.7 µM (inactive)	> 100 µM (inactive)	> 100 µM (inactive)	51.3 µM (inactive)	> 100 µM (inactive)		> 100 µM (inactive)	> 100 µM (inactive)	> 100 µM (inactive)	99.5 µM (inactive)		
N#Cc1c2c(c(Nc3ccc(F)cc3)n3c1nc1ccccc13)CCC2	3.54 µM (inactive)	1.78 µM (inactive)	3.99	2.43 µM (inactive)		6.31 µM (inactive)	3.03 µM (inactive)	2.36 µM (inactive)	6.55 µM (inactive)	7.89 µM (inactive)	1.68 µM (inactive)	6.37 µM (inactive)	3.52 µM (inactive)		6.81 µM (inactive)	2.1 µM (inactive)	3.96 µM (inactive)		5.27 µM (inactive)	5.14 µM (inactive)
CC(O)C(NC(=O)C(CS)NC(=O)C(CO)NC(=O)C(CCCCN)NC(=O)C(Cc1c[nH]c2ccccc12)NC(=O)C(Cc1ccc(O)cc1)NC(=O)C(CS)NC(=O)C(N)Cc1ccccc1)C(N)=O (configuration not stated)	> 25 µM (inactive)	> 25 µM (inactive)	> 25	> 25 µM (inactive)	22.1 µM (inactive)	> 25 µM (inactive)	> 25 µM (inactive)	> 25 µM (inactive)	> 25 µM (inactive)	> 25 µM (inactive)	> 25 µM (inactive)		> 25 µM (inactive)		> 25 µM (inactive)	> 25 µM (inactive)	> 25 µM (inactive)	22.6 µM (inactive)	> 25 µM (inactive)	> 25 µM (inactive)
CCc1nc(N)nc(N)c1-c1ccc([N+](=O)[O-])c(Cl)c1	2.19 µM (inactive)	1.77 µM (inactive)	1.35	1.49 µM (inactive)		12.5 µM (inactive)	7.53 µM (inactive)	3.7 µM (inactive)	6.87 µM (inactive)	11.5 µM (inactive)	4.55 µM (inactive)	18.2 µM (inactive)	3.31 µM (inactive)		30.4 µM (inactive)	13.3 µM (inactive)	0.855 µM (active)		5.83 µM (inactive)	1.87 µM (inactive)
O=C(C/C(=N/O)C(F)(F)F)c1cccs1	> 100 µM (inactive)	> 100 µM (inactive)	> 100	> 100 µM (inactive)		> 100 µM (inactive)	> 100 µM (inactive)	> 100 µM (inactive)	> 100 µM (inactive)	67.8 µM (inactive)	> 100 µM (inactive)	> 100 µM (inactive)	> 100 µM (inactive)		> 100 µM (inactive)	> 100 µM (inactive)	> 100 µM (inactive)		> 100 µM (inactive)	> 100 µM (inactive)
N#CC1CNC(N)NC1N (configuration not stated)	> 100 µM (inactive)	> 100 µM (inactive)	> 100	> 100 µM (inactive)		> 100 µM (inactive)	> 100 µM (inactive)	> 100 µM (inactive)	> 100 µM (inactive)	> 100 µM (inactive)	> 100 µM (inactive)	> 100 µM (inactive)	> 100 µM (inactive)		> 100 µM (inactive)	> 100 µM (inactive)	> 100 µM (inactive)		> 100 µM (inactive)	> 100 µM (inactive)
COc1cc(-c2cc(=O)c3c(O)c(OC)c(OC)c(OC)c3o2)ccc1O	15.3 µM (inactive)	29.8 µM (inactive)	7.74	31.7 µM (inactive)	23.9 µM (inactive)	> 10 µM (inactive)	21.6 µM (inactive)	16.3 µM (inactive)	29.9 µM (inactive)	32.1 µM (inactive)		2.33 µM (inactive)	4.84 µM (inactive)	16.6 µM (inactive)		26.7 µM (inactive)	31.3 µM (inactive)	32.4 µM (inactive)		
